# Test results as given in patent US20100111965A1, “COMBINATION THERAPY” (FUSION ANTIBODIES LIMITED, priority 2006, published 2010).
# Assays:
# [1] = test system: HT29 colorectal cancer cells; assay: RT-PCR of AREG mRNA in HT29 cells after chemotherapy; format: cell-based, human; conditions: IC50 dose, 48 hours
# Description: FIG. 6 illustrates AREG upregulation following chemotherapeutic challenge in A) HT29, B) HCT116 and C) MDA-MB231 cells. Cells were treated with/without chemotherapy for 48 hours. RT-PCR was performed with 1 μg of total RNA using primer pairs specific for the human AREG gene or GAPDH. The PCR products were separated on 1.5% agarose gel electrophoresis and visualized by ethidium bromide staining.
# For Example 2, Total RNA was isolated from cells following the RNA STAT-60 manufacturer's protocol (Biogenesis, Poole, U.K.). RT-PCR was performed with 1 μg of total cell RNA using a Promega ImProm-II™ Reverse Transcription System (Promega, Southhampton, UK). PCR was performed using primer pairs specific for human AREG (Forward 5′-[…]-3′(SEQ ID No:19), Reverse 5′-[…]-3′ (SEQ ID No:20)), human HB-EGF (Forward 5′-[…]-3′(SEQ ID No:21), Reverse 5′-[…]-3′(SEQ ID No:22)), human GAPDH as a control (Forward 5′[…]-3′(SEQ ID No:23), Reverse 5′ […]-3′(SEQ ID NO:24)) and human Beta-actin as a control (Forward 5′-[…]-3′(SEQ ID No:25), Reverse 5′-[…]-3′(SEQ ID No:26)).
# The PCR products were separated on 1.5% agarose gel and visualized by ethidium bromide staining.
# [2] = test system: HCT116 cells; assay: FACS analysis of cell surface AREG in HCT116 with or without irinotecan; format: cell-based, human; conditions: 2.5 μM for 48 hours; HCT116 and H460 analysed, cell line not given
# Description: (§1) Following treatment cells were stained with AREG monoclonal antibodies and analysed by FACS
# (§2) After 48 hours cells were washed in PBS and blocked for 20 minutes in Normal Goat Serum. 5×10^5 cells were incubated with AREG antibodies or isotype control for 2 hours and washed in PBS-T. The cells were incubated with a FITC conjugated goat anti-mouse antibody for 1 hour and washed in PBS-T before analysis on BD FACS canto.
# [3] = test system: HCT116 cells; assay: MTT assay, HCT116 cell proliferation; format: cell-based, human; conditions: siRNA 10 nM, CPT-11 3.5 μM, 48 hr, compared to untreated, mock, control siRNA
# Description: FIG. 8 illustrates HCT116 cell proliferation following AREG/HB-EGF silencing by siRNA and/or Chemotherapy treatment. Cells were transfected with AREG siRNA (10 nM), HB-EGF siRNA (10 nM) or a control siRNA (10 nM). […] Cell proliferation was analysed by MTT assay 48 hr after transfection/chemotherapy
# FIG. 28 illustrates HCT116 cell proliferation after treatment with AREG antibody. Cell proliferation was analysed by MTT assay 48 hr after treatment.
# FIG. 30 illustrates HCT116 cell proliferation after treatment with AREG antibody. Cell proliferation was analysed by MTT assay 48 hr after treatment.
# FIG. 31 illustrates HCT116 cell proliferation after treatment with AREG antibody. Cell proliferation was analysed by MTT assay 48 hr after treatment
# FIG. 33 illustrates HCT116 cell proliferation following HB-EGF silencing by siRNA and/or treatment with Anti AREG antibodies (6E11 1E92D8 & 6E11 1E9 106). Cells were transfected with HB-EGF siRNA (50 nM) or a control siRNA (50 nM). Cell proliferation was analysed by MTT assay 72 hr after transfection. […]
# Cell viability was assessed by 3-(4,5-dimethylthiazol-2-yl)-2,5-diphenyltetrazolium bromide (MTT, Sigma) assay (Mosmann, T. 1983. J. Immunol. Methods 65:55-63). […] Cell viability was determined by reading the absorbance of each well at 570 nm using a microplate reader (Tecan Sunrise, Biorad, UK).
# [4] = test system: HCT 116 +/+; assay: Confocal microscopy of AREG expression in HCT116 after CPT-11; format: cell-based, human; conditions: 24 h and 48 h, compared to untreated controls
# [5] = test system: H460 lung carcinoma cell line; assay: FACS analysis of cell surface AREG in H460 with or without irinotecan; format: cell-based; conditions: 2.5 μM for 48 hours
# Description: as §1, §2
smiles,measurement,setting,value
"CCc1c2c(nc3ccc(OC(=O)N4CCC(N5CCCCC5)CC4)cc13)-c1cc3c(c(=O)n1C2)COC(=O)[C@]3(O)CC [CPT-11, irinotecan]",AREG mRNA expression (RT-PCR),[1],up-regulation
same,increase in the cell surface expression of AREG (FACS),[2],≤ 40%
same,effect on cell viability (MTT),[3],no significant effect
same,AREG expression levels (confocal microscopy),[4],increasing levels of expression at each time point
same,"AREG surface expression levels (FACS), detected by clones 3H5 and 3F8",[5],up-regulation in expression levels
